The results in this text go back to ChEMBL document CHEMBL1155495, “Structural study of phenyl boronic acid derivatives as AmpC beta-lactamase inhibitors” (Bioorg Med Chem Lett, 2010).

As a reminder, the Ki is the dissociation constant of the complex between target and ligand, obtained from inhibition or displacement. The term logD denotes the decadic logarithm of the distribution of all forms, ionised or not, between an organic phase and buffer at a given pH. Higher therefore signals higher lipophilicity.

One series is described as follows: Inhibition of AmpC beta lactamase by spectrophotometry.
Settings: not given
Regarding `O=C(O)c1ccc(C(=O)Nc2cccc(S(=O)(=O)Nc3cc(B(O)O)ccc3C(=O)O)c2)cc1`, the affinity, expressed as Ki, was 100 nM. In other words, the sub-micromolar range.
`O=C(O)c1ccc(C(=O)Nc2ccc(S(=O)(=O)Nc3cccc(B(O)O)c3)cc2)cc1` had a Ki of 450 nM.
As for `Nc1cc(B(O)O)ccc1C(=O)O`, affinity was put at a Ki of 1800 nM.
The compound `Cc1noc(C)c1S(=O)(=O)Nc1cc(B(O)O)ccc1C(=O)O` displayed a Ki of 350 nM.
`O=S(=O)(Nc1cccc(B(O)O)c1)c1cccc(S(=O)(=O)Nc2cccc(B(O)O)c2)c1`: the Ki turned out to be 60 nM. Against the preceding compound, the Ki is about 5.8-fold lower.
In the case of `O=C(O)c1ccc(B(O)O)cc1NS(=O)(=O)c1cccc(S(=O)(=O)Nc2cc(B(O)O)ccc2C(=O)O)c1`, the Ki came out at 23 nM.

Another series is described as follows: Lipophilicity, log D of the compound. The format is physicochemical. The note with it: octanol/water.
For `O=C(O)c1ccc(B(O)O)cc1NS(=O)(=O)c1cc(S(=O)(=O)c2ccccc2)cs1`, the logD amounted to 0.026.
